Values of other authors, collected in US20240315962A1, “EXTENDED RELEASE COMPOSITIONS COMPRISING PYRIDOSTIGMINE” (priority 2020, published 2024).

In the case of `CN(C)C(=O)Oc1ccc[n+](C)c1` [pyridostigmine], the bioavailability (NDA #020414) is listed as 10-20%, the elimination half-life (oral) is listed as 3 to 5 h and the “time-to-maximum peak plasma concentration” value (oral) is listed as 1 to 2 h.
